Assay results reported in US8697098B2, “Polymer conjugated protein micelles” (South Dakota State University, priority 2011, dated 2014).
≈ marks a conversion by molar mass, not a printed value. Like-named read-outs stand apart in the source and are kept apart here.

Experiments:
[1] = tested on: JC mouse breast cancer cells; assay: In vivo biodistribution in allograft breast tumor mouse model; settings: i.v.; 3 hours after administration
Method: The tumor model was developed by subcutaneous injection of JC mouse breast cancer cells. […] Animals were sacrificed 3 hours after treatment administration. Tumor and organs were collected. Doxorubicin concentration in tumors and organs were determined using a fluorescence based isocratic HPLC method. […] Female nude mice (Charles River Laboratories, Wilmington, Mass.) were used in the study. JC mouse breast cancer cells (1×10^7 cells) were suspended in PBS and injected subcutaneously. […] After 3 hours, the mice were sacrificed and organs (liver, heart, lungs, spleen, brain and tumor) were collected and homogenized in 2 mL deionized water using a tissue homogenizer. After addition of 100 ng of daunorubicin (internal standard), tissue homogenates were lyophilized.
Dry tissues were weighed and extracted with 5 mL of methanol/chloroform mixture (65:35) using a shaker for 5 hours in the dark at room temperature. The extract was centrifuged at 13,000 rpm for 10 minutes at 4° C. The supernatant was evaporated under nitrogen gas and reconstituted in methanol/acetonitrile (50:50).

[2] = tested on: MCF-7 human breast cancer cells; assay: In vitro cytotoxicity, MTT assay; type: cell-based; settings: MCF7, 120 h, doxorubicin 15.62 nM to 1000 nM, MTT on day 5
Method: […]. On day 5 cytotoxicity analysis was performed using an MTT assay. Data points represents average±SE (n=4). […].
The cells were washed twice with ice cold phosphate buffer and replaced with fresh media. Media was replaced for every 48 hours. At day 5, cytotoxicity analysis was performed using the MTT assay.

[3] = cited from earlier work
[4] = tested on: NCl/ADR-RES drug resistant human ovarian cancer cells; assay: In vitro cytotoxicity, MTT assay; type: cell-based
Method: On the fifth day cytotoxicity analysis was performed using an MTT assay. Data points represent average±SE (n=4).
On day 5 cytotoxicity analysis was measured using an MTT assay. Data points represent average±SE (n=4).
The cells were washed twice with ice cold phosphate buffer and replaced with fresh media. […] On day 5 cytotoxicity analysis was performed using an MTT assay.
On the fifth day cytotoxicity analysis was performed using the MTT assay.

[5] = cited from earlier work; remark: listed apart in the source
[6] = comparison surfactant / block copolymers; cited from earlier work

COc1cccc2c1C(=O)c1c(O)c3c(c(O)c1C2=O)C[C@@](O)(C(=O)CO)C[C@@H]3O[C@H]1C[C@H](N)[C@H](O)[C@H](C)O1 [Doxorubicin]
doxorubicin accumulation in tumor [1]: no drug accumulation
IC50 [2]: 0.148 µM
solubility in water ([3]; free compound): practically insoluble in water
solubility in water ([3]; free drug): 0.015 µg/mL (≈ 0.0276 µM)
IC50 ([4]; 120 h, doxorubicin 31.25 nM to 1000 nM, MTT on day 5, read-out: IC50): 0.126 µM

COc1cc(/C=C/C(=O)/C=C(O)/C=C/c2ccc(O)c(OC)c2)ccc1O [Curcumin]
solubility in water ([3]; free compound): practically insoluble in water
solubility in water ([3]; free drug): 0.011 µg/mL (≈ 0.0299 µM)
IC50 ([4]; 96 h): 0.104 µM
Log P ([5]; Table 3, cargo compound itself): 2.5
Log P [5]: 2.5

CCN(CC)c1ccc2nc3c4ccccc4c(=O)cc-3oc2c1 [Nile red]
solubility in water ([3]; free compound): practically insoluble in water
Log P ([5]; Table 3, cargo compound itself): 5

CCCCCCCCCCCCOS(=O)(=O)[O-].[Na+] [sodium dodecyl sulfate]
critical micellar concentration (CMC) [6]: about 2.304 g/L
